Experimental findings from PubChem BioAssay AID2060342 (Molecular Pharmacology Branch, DTP, NCI, 2025) are described below.

This assay deals with 171881-019-R-J1-PDC multicell spheroid viability. Briefly: Anticancer human tumor 171881-019-R-J1-PDC patient-derived invasive breast carcinoma cell line growth inhibition [IpAb]. Particulars: for viability, T/C: stronger effect = lower value. Put shortly:
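Combinations with ipatasertib or abemaciclib were tested on tumour spheroids holding HUVEC (25%) and MSC (15%) alongside 60% malignant cells. Top concentration was at or near clinical Cmax (10 microM if undefined), descending in half-log steps.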
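Also: spheroids exposed to the agents for seven days before readout.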

With `Cn1cnc2c(F)c(Nc3ccc(Br)cc3Cl)c(C(=O)NOCCO)cc21` + CCN1CCN(Cc2ccc(Nc3ncc(F)c(-c4cc(F)c5nc(C)n(C(C)C)c5c4)n3)nc2)CC1, the IC50 is, setting by setting: (curve of first compound, second compound 0.01 µM) 1250 nM; (curve of first compound, second compound 0.0316 µM) 1130 nM; (curve of first compound, second compound 0.1 µM) 1150 nM; (curve of first compound, second compound 0.316 µM) 1400 nM; (curve of first compound, second compound 1 µM) 1320 nM. Also, the viability, T/C reads like this: (second compound 0.01 µM, first compound 0.00949 µM) 97.1%; (second compound 0.01 µM, first compound 0.03 µM) 114%; (second compound 0.01 µM, first compound 0.0949 µM) 112%; (second compound 0.01 µM, first compound 0.3 µM) 114%; (second compound 0.01 µM, first compound 0.949 µM) 61.3%; (second compound 0.01 µM, first compound 3 µM) 13.9%. In addition, the viability, T/C reads like this: (second compound 0.0316 µM, first compound 0.00949 µM) 121%; (second compound 0.0316 µM, first compound 0.03 µM) 120%; (second compound 0.0316 µM, first compound 0.0949 µM) 130%; (second compound 0.0316 µM, first compound 0.3 µM) 109%; (second compound 0.0316 µM, first compound 0.949 µM) 56.8%; (second compound 0.0316 µM, first compound 3 µM) 14.6%. The viability, T/C is 112% (second compound 0.1 µM, first compound 0.00949 µM); 138% (second compound 0.1 µM, first compound 0.03 µM); 126% (second compound 0.1 µM, first compound 0.0949 µM); 99.7% (second compound 0.1 µM, first compound 0.3 µM); 58.3% (second compound 0.1 µM, first compound 0.949 µM); 15.9% (second compound 0.1 µM, first compound 3 µM). For the same compound, the viability, T/C was 142% (second compound 0.316 µM, first compound 0.00949 µM); 142% (second compound 0.316 µM, first compound 0.03 µM); 136% (second compound 0.316 µM, first compound 0.0949 µM); 116% (second compound 0.316 µM, first compound 0.3 µM); 63.4% (second compound 0.316 µM, first compound 0.949 µM); 23.4% (second compound 0.316 µM, first compound 3 µM). The viability, T/C is 149% (second compound 1 µM, first compound 0.00949 µM); 142% (second compound 1 µM, first compound 0.03 µM); 138% (second compound 1 µM, first compound 0.0949 µM); 106% (second compound 1 µM, first compound 0.3 µM); 59.5% (second compound 1 µM, first compound 0.949 µM); 25.8% (second compound 1 µM, first compound 3 µM).
For `CC(C)NCC(C(=O)N1CCN(c2ncnc3c2C(C)CC3O)CC1)c1ccc(Cl)cc1` (centres undefined), the viability, T/C (compound 1 µM) was 27.9% [middle of 13 runs]; the viability, T/C (compound 3.16 µM) is 11.2% [middle of 13 runs]; the viability, T/C (compound 10 µM) is 6.7% [middle of 12 runs]. Besides, for the setting “compound alone, run of 05/18/2021”, the IC50 was 618 nM [middle of 13 runs].

One may read the IC50 as the concentration needed to halve the response being measured. One may read the viability, T/C as the ratio of treated to control.
